From patent US12616753B2, “HSP70 inhibitors and methods of using same” (THE WISTAR INSTITUTE, priority 2020, dated 2026)

Experiments:
[1] = tested on: CRC cell lines (SW620, HT-29, HCT 116+/−p53, RKO, and LS411N); assay: Alamar Blue cell viability assay, human CRC panel; assay type: cell-based; conditions: SW620, 72 hours
Method: FIGS. 4A-4F show AP-4-139B is efficacious as a single agent against human CRC in vitro and in vivo. FIG. 4A: Three CRC cell lines (HT-29, LS411N, and SW620) were treated with 10 μM of PET-16 or AP-4-139B for 48 hours. Cell were then subjected to viability assays using Trypan Blue exclusion. *** p<0.001. […] FIGS. 4B-4C: A panel of six CRC cell lines (SW620, HT-29, HCT 116+/−p53, RKO, and LS411N) were plated at a density of 1,000 cells per well in 96-well plates. The next day, cells were treated with the indicated inhibitors for 72 hours. Cells were then subjected to the Alamar Blue cell viability assays. Shown are representative IC50 values of an average of six technical replicates and two biological replicates. FIG. 4D: 2.5×10^6 HT-29 cells were injected subcutaneously into the right flank of NSG mice. Once tumors reached an approximate volume of 100 mm^3, mice were separated randomly into two groups: control vs. AP-4-139B. Mice were treated with 12.5 mg/kg AP-4-139B three times a week. All mice were euthanized 22 days after the start of treatment. Tumor volumes were recorded using digital calipers and using the formula v=length×width^2×0.52. *** p<0.001. n=10 mice per group. FIG. 4E: Immunohistochemistry (IHC) analysis of HT-29 xenograft tumors treated with AP-4-139B. Shown are representative images (4-6 random fields of view per condition) of Ki67 (proliferation) and Cleaved Lamin A (cell death). n=4 mice per group. Scale bar=100 μm. Respective IgG antibody was used as the negative control.

MC38 and HT-29 cells = assay: Extracellular ATP release (CellTiter-Glo); assay type: cell-based; conditions: MC38 cells, increasing concentrations, 3 hours
Method: FIG. 6A: 1×10^6 MC38 cells were injected subcutaneously into the right flank of 6-8-week-old male C57Bl/6 mice. Once tumors reached an approximate volume of 100 mm^3, mice were treated with AP-4-139B (10 mg/kg) every 48 hours. 20 days after the start of treatment, tumors were excised, weighed, minced and digested. Tumor-infiltrating and splenic conventional CD4 (cCD4) (Live CD45^+ DUMP^− CD3^+CD4^+Foxp3^−), Tregs (Live CD45^+ DUMP^− CD3^+CD4^+Foxp3^+), CD8 (Live CD45^+ DUMP^− CD3^+CD8^+) T-cells, and Dendritic Cells (Live CD45^+ DUMP^− CD3^−CD11c^+MHCII^+) numbers were assessed by flow cytometry. * p<0.05, n.s. not significant. n=8 mice per group. FIG. 6B: MC38 and HT-29 cells were treated with the indicated concentrations of AP-4-139B for either 8 or 24 hours; media was collected and subjected to WB for HMGB1. Data shown are representative of three technical replicates. FIG. 6C: MC38 and HT-29 cells were treated with the indicated concentrations of AP-4-139B for three hours and then assayed for extracellular ATP release. Each graphical representation indicates the mean±the standard deviation of three independent experiments relative to control (DMSO-treated) cells.
FIG. 6D: MC38 cells were treated with 5 μM AP-4-139B for 24 hours and subjected to flow cytometry, using Alexa488-tagged calreticulin antibody. *** p<0.001, n=4 biological replicates performed in duplicate. FIG. 6E: MC38 cells were treated with increasing concentrations of AP-4-139B, G-TPP, 17-AAG or Metformin for 3 hours and then assayed for extracellular ATP release. Three independent cultures were assayed for each treatment, and DMSO-treated cells were used as internal controls. Error bars represent standard deviation (SD).
The XF Cell Mito Stress Test was performed. Briefly, HT-29 (10,000 cells/well), IMR90 (15,000 cells/well), and 1205Lu (15,000 cells/well) were plated in Seahorse 96-well cell culture microplates, treated with the respective inhibitors for 24 hours, and subjected to the Seahorse XF Cell Mito Stress Test, according to the manufacturer's protocol (Agilent Technologies). For extracellular HMGB1 release, 1×10^6 MC38 cells were plated in 10-cm dishes. The next day, cells were treated with the indicated concentrations of AP-4-139B for 8 or 24 hours in serum-free media. Media was collected and spun down at 2,000 rpm for 5 minutes to pellet any remaining cells or debris. Media was then transferred to Amicon Ultra 15, 10K tubes and spun down at 4,000 rpm for 45 minutes, according to the manufacturer's protocol. […] For extracellular ATP release, ATP was measured using the CellTiter-Glo Kit (Promega catalog #G7570). […] 10 μl of CellTiter-Glo Reaction Mix was then mixed with 10 μl of culture media; the luminescence signal was detected using a luminometer.

full length human HSP70 = target: T1, full length human HSP70 (Homo sapiens, UniProt P0DMV8); assay: HSP70 mediated ATPase assay (Transcreener ADP-FI); assay type: biochemical
T1 construct: Five μL of 30 nM full length human HSP70 in assay buffer
T1 sequence (P0DMV8 whole entry): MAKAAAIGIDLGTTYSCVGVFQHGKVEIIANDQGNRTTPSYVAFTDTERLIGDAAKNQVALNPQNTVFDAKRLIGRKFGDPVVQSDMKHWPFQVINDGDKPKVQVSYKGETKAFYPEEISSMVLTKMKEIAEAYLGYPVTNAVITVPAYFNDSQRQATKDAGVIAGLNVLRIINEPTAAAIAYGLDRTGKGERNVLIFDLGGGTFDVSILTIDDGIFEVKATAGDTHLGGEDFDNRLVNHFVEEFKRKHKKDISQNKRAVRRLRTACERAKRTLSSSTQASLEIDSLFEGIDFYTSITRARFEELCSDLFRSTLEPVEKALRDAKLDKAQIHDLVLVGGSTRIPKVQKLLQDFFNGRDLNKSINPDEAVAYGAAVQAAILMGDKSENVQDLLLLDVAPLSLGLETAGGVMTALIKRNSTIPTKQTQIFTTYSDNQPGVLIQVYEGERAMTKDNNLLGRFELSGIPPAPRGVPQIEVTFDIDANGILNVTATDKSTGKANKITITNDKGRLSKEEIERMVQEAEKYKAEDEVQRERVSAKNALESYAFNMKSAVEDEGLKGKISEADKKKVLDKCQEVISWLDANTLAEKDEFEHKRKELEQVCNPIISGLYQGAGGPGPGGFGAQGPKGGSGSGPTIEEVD
Method: FIGS. 1A-1D show ATPase inhibition and direct binding of a novel HSP70 inhibitor. FIG. 1A: Compounds AP-3-97 and AP-4-139B are direct inhibitors of HSP70. HSP70 mediated ATPase activity was assessed using the TRANSCREENER® ADP-FI assay. Five microliters of 30 nM purified human HSP70 in assay buffer was added to test compounds for 30 minutes, followed by addition of excess ATP. After 15 minutes, reactions were stopped and fluorescence was assessed on a plate reader. Data are normalized to percent inhibition, where 100% is the value in the absence of HSP70, and 0% is the value in the presence of HSP70. Compounds shown include PET-16 (positive control) and the novel HSP70 inhibitors AP-3-97 and AP-4-139B. VY-3-277 was used as a negative control. FIG. 1B: Compound AP-4-139B binds HSP70. Whole cell extracts (WCE) from H1299 cells were incubated with 10 μM Biotin or with a Biotin-labeled variant of AP-4-139B (Biotin-AP-4-139B) for 5 hours. Biotin-AP-4-139B containing complexes were captured using NeutrAvidin resins and separated by SDS-PAGE. The Coomassie-stained protein band of approximately 70 kDa was excised and subjected to tryptic digestion and liquid chromatography-tandem mass spectrometry, and identified to be HSP70. FIG. 1C: H1299 cells were pre-treated with 10 μM of VY-3-277, PET-16, or AP-4-139B for 1 hour prior to the addition of 10 μM Biotin-AP-4-139B for 5 hours. Biotin-AP-4-139B containing complexes were captured by NeutrAvidin resins and immunoblotted using the indicated antibodies following SDS-PAGE. Whole cell extracts (WCE) were examined for the expression of HSP70 (input) and GRP75 (input) by Western blot analysis. FIG. 1D: Compound AP-4-139B directly binds purified human HSP70. […] Data were analyzed using the evaluation software from Biacore and the resulting sensograms were exported and re-plotted in GraphPad Prism.
HSP70 mediated ATPase activity was measured using the Transcreener® ADP-FI assay (BellBrook Labs). […] After 30 minutes, fluorescence at 560/620 nm was measured using the Envision plate reader. […]

[2] = target: N-terminal HIS tagged HSP70 (Homo sapiens, UniProt P0DMV8); assay: Small molecule binding to HSP70 using SPR (Biacore T200)
Chain of N-terminal HIS tagged HSP70 (P0DMV8 whole entry): as above
Method: SPR experiments were conducted using the Biacore T200. Approximately 20,000 RU of N-terminal HIS tagged HSP70 was immobilized on a multi-dentate NTA derivatized linear carboxylate sensor chip (NICH1500M, Xantec Bioanalytics). The running buffer was PBS containing 2 mM MgCl2, 0.05% Tween, and 5% DMSO. Test compounds were diluted at 20× final concentration in 100% DMSO and then diluted into running buffer without DMSO so that the DMSO concentrations in both the sample and the running buffer were similar. Flow rate was 30 μL/min, contact time for each sample concentration was 30 seconds, followed by a 60 second dissociation time. Data were analyzed using the Biacore evaluation software and the resulting sensograms exported and re-plotted in GraphPad Prism.
The next studies sought to determine whether AP-4-139B interacts directly with HSP70. To accomplish this, full-length His-tagged human HSP70 was used, and it was immobilized on a high affinity poly-Ni-NTA sensor chip for surface plasmon resonance experiments on a Biacore T200. This HSP70-loaded chip was incubated with AP-4-139B or the negative control VY-3-277. As a positive control the adenosine-derived HSP70 inhibitor Ver-155008 was used (Massey et al., Cancer Chemother Pharmacol. 2010 August; 66(3):535-45).

Row | SMILES | sensitivity of SW620 cells [1] | ATP release, comparison of compounds (MC38 and HT-29 cells) | other results
1 | O=c1[nH]cc(F)c(=O)[nH]1 [5-FU, 5-fluoro-uracil] | highly resistant | – | –
2 | C=CCNC1=C2C[C@@H](C)C[C@H](OC)[C@H](O)[C@@H](C)/C=C(\C)[C@H](OC(N)=O)[C@@H](OC)/C=C\C=C(/C)C(=O)NC(=CC1=O)C2=O [17-AAG, reference compound] | – | induced ATP release, albeit to a lesser extent | –
3 | O=S(=O)(NCCCCCC[P+](c1ccccc1)(c1ccccc1)c1ccccc1)c1ccc2c(c1)oc1ccccc12 [AP-3-97, (6-(Dibenzo[b,d]furan-3-sulfonamido)hexyl)triphenylphosphonium bromide] | – | – | inhibition of HSP70 ATPase activity (in words) (full length human HSP70): markedly superior potency
4 | N#Cc1ccc(COC[C@H]2O[C@@H](n3c(NCc4ccc(Cl)c(Cl)c4)nc4c(N)ncnc43)[C@H](O)[C@@H]2O)cc1 [Ver-155008, reference compound] | – | – | binding to sensor chips loaded with HSP70 [2]: reproducibly bound in concentration-dependent manner
5 | CN(C)C(=N)N=C(N)N [metformin, reference compound] | – | induced ATP release, albeit to a lesser extent | –
6 | O=C1[O][Pt]2([NH][C@@H]3CCCC[C@H]3[NH]2)[O]C1=O [oxaliplatin] | highly resistant | – | –
